Laboratory results published in article PMC2395599, “Low Dose Histone Deacetylase Inhibitor, Depsipeptide (FR901228), Promotes Adenoviral Transduction in Human Rhabdomyosarcoma Cell Lines” (Sarcoma, 2004).
Where “and” joins values, the source holds several entries; their conditions need not be identical. Equal entries are not always repeated.

Assays:
av integrin = assay: Semi-quantitative RT-PCR for αv integrin RNA expression in RMS cells; type: cell-based, human; conditions: 0.5 ng/ml, 72 h; for fold av integrin expression: Fig. 3b
Protocol: (§1) Sarcoma, March 2004, VOL. 8, NO. […] Methods. […] Results. […] Conclusions. […] Human av integrin primers:8 sense 50 -[…] AGT and antisense 50 -CAGTG[…] […] Cells were harvested after 72 h of treatment. Cell number was determined using a colorimetric MTT assay. […] The cells were replenished with complete media. […] References 1. […] Science 1997; 275: 1320-3. 2. […] J Virol 2000; 74: 42-8. 3. […] Virology 2000; 268: 382-90. 4. Wickham TJ, Mathias P, Cheresh DA, Nemerow GR. […] Cell 1993; 73: 309-19. 5. […] J Biol Chem 2000; 275: 14729-35. 6. […]. […] Cancer Res 1998; 58: 5738-48. 7. […] Cancer Res 1999; 59: 325-30. 8. […] Cancer Res 2001; 61: 6328-30. 9. […] Cancer Res 2001; 61: 2953-60. 10. […] J Biol Chem 1997; 272: 6479-89. 11.

[1] = tested on: coxackie and adenovirus receptor (CAR); assay: Semi-quantitative RT-PCR for CAR RNA expression in RMS cells; type: cell-based, human; conditions: 0.5 ng/ml, 72 h; for fold CAR expression: Fig. 3a
Protocol: as §1

[2] = tested on: RMS cell lines (RD4a, CTR, RH5, RH13, RH18, RH30); conditions: 0.5 ng/ml, 72 h, six RMS cell lines, MTT, triplicate, DMSO controls
[3] = tested on: acetylated histone H3 in CTR cells; assay: Western blot analysis for histone H3 acetylation; type: cell-based, human; conditions: CTR cell line, 0.5 ng/ml, 72 h, histone H3 loading control
Protocol: as §1

[4] = tested on: adenovirus AdU1 (GFP) uptake in RMS cell lines; assay: Adenoviral (AdU1) GFP expression in RMS cell lines pretreated with depsipeptide, Western blot densitometry; type: cell-based, human; conditions: 0.5 ng/ml 72 h pretreatment; for fold GFP expression: Fig. 2b
Protocol: as §1

[5] = range over four of six RMS cell lines, RT-PCR normalised to GAPDH

C/C=C1\NC(=O)[C@H]2CSSCC/C=C/[C@H](CC(=O)N[C@H](C(C)C)C(=O)N2)OC(=O)[C@H](C(C)C)NC1=O [depsipeptide (FR901228), Depsipeptide (FR901228)]
fold av integrin expression (av integrin; CTR): 2.2 X and 2 X | fold av integrin expression (av integrin; RD4a): 1.3 X | fold av integrin expression (av integrin; RH5): 6.6 X | fold av integrin expression (av integrin; RH13): 6.9 X | fold av integrin expression (av integrin; RH18): 1.5 X | fold av integrin expression (av integrin; RH30): 1.1 X | fold modulation of av integrin expression (av integrin; [5]): 1.5-6.9 fold | CAR expression ([1]; CTR): lack of CAR expression | fold CAR expression ([1]; RD4a): 4.8 X | fold CAR expression ([1]; RH5): 1.2 X | fold CAR expression ([1]; RH13): 3.3 X | fold CAR expression ([1]; RH18): 2.8 X | fold CAR expression ([1]; RH30): 8.1 X | fold increase in CAR expression compared to untreated cells [1, 5]: 2.8-8.1 fold | growth inhibition of RMS cells compared to controls [2]: less than 20% | acetylated histone H3 [3]: increase in acetylated histone H3 | GFP protein expression ([4]; CTR): No GFP protein expression was detected | fold GFP expression ([4]; RD4a): 2.7 X | fold GFP expression (adenoviral uptake) ([4]; RH5, Fig. 2b and text): 2.6 X and 2.8 X | fold GFP expression ([4]; RH13): 2.8 X | fold GFP expression ([4]; RH18): 7.8 X | fold GFP expression ([4]; RH30): 8.6 X
